# Assays:
# A2780 cells [1] = test: Flow cytometric cell cycle analysis (PI), A2780; type: cell-based, human; details: 25 μM; 45.3% under control conditions
# Procedure: A2780 and SKOV3 cell lines were treated with control (siltuximab 10 μM) and butein (5, 10, and 25 μM). After 6 h, the cells were fixed with 70% ethanol for cell cycle analysis and stained with propidium iodide (PI). Cell death was analyzed using the FITC Annexin V Apoptosis Detection kit with 7-AAD (Cat.no. 640922, BioLegend, San Diego, CA, USA). Cells were sorted using a FACS Canto II (BD Biosciences, Franklin Lakes, NJ, USA) and cell cycle and apoptosis were analyzed using BD FACS Diva software version 6. 2. Analysis (BD Biosciences, Franklin Lakes, NJ, USA) was performed in triplicate.
# A2780 cells [2] = test: Wound-healing assay, A2780; type: cell-based, human; details: 24 h and 48 h, concentration-dependent, vs control, 0.1% DMSO and siltuximab
# Procedure: A2780 and SKOV3 cells were cultured to 90% confluence in 6-well plates. After changing to a serum-free medium, the cell monolayer was scraped to artificially form homogeneous wound with uniform thickness. The drug treatment for each well was carried out in the following manner: siltuximab at 50 μM; butein at 10, 25, and 50 μM. The cells were imaged at 0, 24, and 48 h.
# A2780 xenograft tumors = test: A2780 mouse xenograft; type: in vivo, BALB/c nude mice
# Procedure: Adult BALB/c nude mice aged 5 weeks (n = 5, body weight 17−19 g) were purchased from Orient Bio (Seongnam, Republic of Korea) and reared in aseptic conditions with 55 ± 10% humidity and 25 ± 2 °C temperature under a 12 h/12 h light-dark cycle (Catholic University protocol). All animal experimental work was carried out in compliance with the legal obligations and federal guidelines and legal obligations for the care and maintenance of laboratory animals. All animal experiments were conducted with the approval of the Institutional Animal Care and Use Committee of the Catholic University of Korea (approval number: CUK-IACUC-2019-026-01). A2780 cell suspension (1 × 10^7 cells/200 μL in 1 × PBS) was injected subcutaneously into the dorsal scapula area of each mouse. The tumor developed 14 days after implantation to a size of approximately 150 mm^3. The mice were then divided randomly into vehicle control (5% DMSO), siltuximab (10 mg/kg), and butein (2 or 4 mg/kg) groups. All drugs were dissolved in 0.05% carboxymethylcellulose sodium salt (CMC) (Sigma-Aldrich, St. Louis, MO, USA) and injected intraperitoneally five times a week for three weeks. The tumor size was measured using calipers once every 2 days. The tumor volume was calculated using a simplified equation (length × width^2 × 0.5). Each tumor was harvested 22 days post-treatment.
# [3] = tested on: STAT3 phosphorylation in SKOV3 cells; test: Western blotting of STAT3 phosphorylation, SKOV3; type: cell-based, human; details: relative to IL-6 treated cells
# Procedure: After each drug treatment of the cells, the cells were dissolved in 100 μL of radioimmunoprecipitation assay (RIPA) buffer (Thermo Fisher Scientific Inc., Waltham, MA, USA) and centrifuged to separate the supernatant containing protein. Isolated protein concentrations were measured using the Pierce BCA Protein Assay Kit (Thermo Fisher Scientific Inc., Waltham, MA, USA). Aliquots of proteins quantified at […] were boiled at 100 °C in 5× sample buffer, separated on a 12% SDS-polyacrylamide gel and electrophoresed onto polyvinylidene difluoride (PDVF) membranes (Millipore, Billerica, MA, USA). The PDVF membranes were blocked for 1 h at 25 °C with 5% BSA in 1× tris buffered saline containing 0.05% Tween20 (TBST) (Sigma-Aldrich, St. Louis, MO, USA). The membrane was incubated in the primary antibody at 4 °C overnight. PDVF membranes were washed with 1× TBST and incubated with AffiniPure goat anti-rabbit IgG secondary antibody (Jackson Immunoresearch, West Grove, PA, USA) for 1 h at room temperature. After washing again with TBST buffer, enhanced signals were detected using the SuperSignal™ West Femto Maximum Sensitivity Substrate kit (cat.no. 34094, Thermo Scientific, Rockford, IL, USA). The blot was imaged using the ChemiDoc imaging system (Bio-Rad, Herles, CA, USA), and protein expression was quantified with the ImageJ software (v1.8.0).
# SKOV3 cells [4] = test: Clonogenic formation assay, SKOV3; type: cell-based, human; details: compared with control siltuximab-treated cells
# Procedure: A2780 and SKOV3 cell lines were seeded at approximately 5000 cells/well in 24-well plates. Butein was added to the cell medium at various concentrations (5, 10, and 25 μM) together with control siltuximab (CTNO328; EUSA Pharma, Inc., Hemel Hempstead, UK) for 12 h. After 2 weeks, the colonies formed were fixed with fixer buffer, stained with crystal violet, and imaged with a ChemiDoc imaging system (Bio-Rad, Herles, CA, USA).
# SKOV3 cells [5] = test: Cell viability by MTT assay, SKOV3; type: cell-based; details: Homo sapiens, SK-OV-3, 48 h
# Procedure: (§1) A2780 and SKOV3 cell lines were purchased from the European Collection of Cell Cultures (ECACC, London, UK) and Korean Cell Line Bank (KCLB, Seoul, Republic of Korea) respectively. Each cell line was seeded in a 96-well plate at an appropriate cell number (3000 cells/100 μL in each well). After 24 h, butein was added to the plates at each of the following concentrations, 0, 3.125, 6.25, 12.5, 25, and 50 μM, in triplicate in the presence of serum medium. After 48 h, 100 μL of […] (Sigma-Aldrich, St. Louis, MO, USA) solubilizing solution was added to each well and incubated for 4 h. The solution was then aspirated, and 100 μL of DMSO was added for cell lysis. The spectrophotometric absorbance was measured at 540 nm. Half of the maximum inhibitory concentration (IC50) was determined using GraphPad Prism software (version 7.0).
# A2780 cells [6] = test: Matrigel invasion assay, A2780; type: cell-based, human; details: 48 h
# Procedure: Matrigel invasion assays were performed using a BioCoat Matrigel Invasion Chamber (BD Bioscience, Bedford, MA, USA). A2780 and SKOV3 cells (50,000 cells) were placed inside the chamber in serum-free medium containing 500 μL of drugs, and 700 μL of medium containing serum were placed outside the chamber. After incubation for 48 h, the infiltrating cells were stained using the Differential Quick Stain Kit (Cat.no. 26096-50, Electron Microscopy Sciences, Hatfield, PA, USA). Cells were imaged with a Slide Scanner (Aperio CS2, Leica Microsystems, Wetzlar, Germany) and the number of invading cells was quantified using Image J.
# A2780 cells [7] = test: Cell viability by MTT assay, A2780; type: cell-based; details: Homo sapiens, 48 h
# Procedure: as §1
structure (smiles),measurement,setting,value
O=C(/C=C/c1ccc(O)c(O)c1)c1ccc(O)cc1O [butein],A2780 cells in G1-phase,A2780 cells [1],55.9%
same,"Cell migration, A2780",A2780 cells [2],reduced
same,Tumor growth,"A2780 xenograft tumors; 2 or 4 mg/kg i.p. five times a week, vs vehicle and siltuximab-treated group",significant inhibition
same,Total mouse weight,A2780 xenograft tumors; during the experimental period,no difference
same,"Phosphorylation of STAT3, SKOV3",[3],inhibited in a concentration-dependent manner
same,"Clonogenicity, SKOV3",SKOV3 cells [4],significantly inhibited
same,IC50,SKOV3 cells [5],175 ± 61.9 µM
same,"Cell infiltration (invasion), A2780",A2780 cells [6],similarly affected
same,IC50,A2780 cells [7],64.7 ± 6.27 µM

# Reference: paper PMC10094418, “Butein Inhibits Cell Growth by Blocking the IL-6/IL-6Rα Interaction in Human Ovarian Cancer and by Regulation of the IL-6/STAT3/FoxO3a Pathway” (International Journal of Molecular Sciences, 2023)
